Results reported in patent publication US20060167229A1, “Biologically active peptide conjugates” (priority 2002, published 2006).
Entries after “also recorded” stand apart in the source; their conditions may differ. Marks after values point to notes of the source that are not given here. Ends that are not written are not given here.

Experiments:
[1] = tested on: S180 sarcoma; test: Growth of transplanted S180 sarcoma; type: in vivo, BALB/c mice; conditions: controls: IL-2, IFN-γ 3 × 10^5 IU/kg, cyclophosphamide 20 mg/kg; saline 1.29 ± 0.50
Experimental: (§1) Intraperitoneal injection, once per day. […] Treatment of all groups with testing substance lasted for 30 days or until the animal died unless otherwise specified.
Stock S180 sarcoma cells were incubated in DMEM/F12 medium supplemented with 10% fetal bovine serum, 37° C., 5% CO2 for 72 hrs, then washed 3-4 times with Hank's solution at room temperature. Adjust the cell concentration to 1-2×10^9 per litre with Hank's solution. […] The mice were killed by cervical vertebra dislocation. Vigorously growing and non-disrupted tumor masses were harvested and washed clean with sterile saline. The tissue was dispersed in saline to a homogenous cell suspension, in a ratio of 1 g tissue to 4 ml saline. The sarcoma bearing mice model was prepared with an injection of 0.2 ml cell suspension through the armpit. Administration of test substance treatment started as described in section Method 1.
2.2 The Tumor Growth Inhibition Index was Calculated According to the Following Formula: Tumor growth inhibition index=(mean tumor weight of control group−mean tumor weight of treatment group)÷mean tumor weight of control group 3.

[2] = tested on: L1210 leukemia; test: Survival of mice with transplanted L1210 leukemia; type: in vivo, DBA/2 mice; conditions: controls: IL-2, IFN-γ 3 × 10^5 IU/kg, cyclophosphamide 20 mg/kg; saline 16.6 ± 5.6
Experimental: as §1
Stock L1210 cells were incubated in DMEM/F12 medium supplemented with 10% fetal bovine serum, 37° C./5% CO2 for 72 hrs, then washed 3-4 times with Hank's solution, and adjusted to […]. 0.1 ml of the cell suspension was implanted into the abdominal cavity of several healthy DBA mice for 6-8 days. The mice were then killed by cervical vertebra dislocation and their ascitic fluid collected aseptically. The cell concentration of the collected ascitic fluid was adjusted to 1×10^5 per ml with Hank's solution. 0.1 ml of the cell suspension was implanted into each of the testing animal and the survival data of the animals recorded. Treatment started in the testing animals as described in section Method 1. Mean survival day was obtained by the Kaplan-meier method in the Survival option of the SPSS software. If the animal survived longer than the experiment, the survival days was entered as the duration of the experiment. The survival index was calculated according to the following formula: Survival index=(mean survival days of treatment group−mean survival days of control group)÷mean survival days of control group 6. The Effect of Peptides on the Humoral Immunity of C57BL/6 Mice Bearing Transplanted B16 Melanoma and that on the Metastatic Potential of the Inoculated Melanoma Cells

[3] = tested on: Masugi nephritis rat model; test: Masugi nephritis rat model; conditions: for urine protein level: 24 h urine; for spleen index / Serum creatinine level: after three weeks of treatment; for spleen index: placebo 4.8 ± 1.1, normal 2.4 ± 0.1; for Serum creatinine level: placebo 265 ± 212, normal 80 ± 1; for renal pathological microscopic examination: peptides 50 μg/kg/day i.p. 3 weeks, 6 heaviest kidneys per group
[4] = tested on: NK cell; test: NK cell cytotoxicity activity test (spleen cells of treated mice against YAC-1 target cells, MTT); type: in vivo, BALB/c mice
Experimental: The above substances were all dissolved in 0.5 ml saline and injected intraperitoneal (i.p.) for 15 continuous days, once per day.
Ten mice per group. The day after the last test substance administration, the mice were sacrificed by cervical dislocation. The spleen was isolated aseptically and manually dispersed in cold D-Hank's solution using an injection needle. The dispersed cell suspension was further sieved through a 100 gauge 150 μm diameter stainless steel sieve. After centrifugation at 200 g for 10 minutes, the supernatant was discarded. The cell pellet was re-suspended in 10 volume of Tris-NH4Cl buffer and then kept standing still for 10 minutes at room temperature. The suspended cells were collected by centrifugation at 150 g for 10 minutes. The cells were washed 2-4 times with cold D-Hank's solution by re-suspending and collecting by centrifugation with condition as described above. The washed cells were then diluted to the desired cell densities by RPMI-1640 culture medium, containing 10% fetal bovine serum.
Mice spleen cells were prepared to 4×10^6/ml as described in section 1.1 above. Target cells YAC-1 were brought to log phase and adjusted to 1×10^5/ml. Using a 96 wells cell culture plate, […] were added to the control well containing only the spleen cells; […] and 100 μl culture medium were added to the control well containing only target cells; 100 μl mouse spleen cells and 100 μl target cells were added to the NK activity assay well. Three parallel sets of the above were prepared per mouse.
Samples were centrifuged at 150 g for 10 minutes to collect the cells. The supernatant was discarded and 50 μl/well MTT of 1 mg/ml was added. The reaction-mixture was then shaken for 2 minutes, and incubated at 37° C., 5% CO2 for 4 hours. The supernatant was discarded after centrifugation at 150 g for 10 minutes. […] 40 mM HCl-2-propanol was added and shaken for 3 minutes. An ELISA reader was used to obtain OD570 nm of each well referenced at 630 nm.

[5] = tested on: anti-SRBC antibody; test: Sheep Red Blood Cell (SRBC) hemolysis test, antibody formation; type: in vivo, BALB/c mice; conditions: for anti-SRBC antibody formation, X ± SD (Unit): healthy mice, SRBC day 12 (IFN-γ, IL-2 3×10^5 IU/kg/day), saline 32 ± 7
Experimental: Sheep red blood cells (SRBC) were prepared by collecting blood from cervical vein and put into a sterile flask with glass beads. The flask was shaken for 3 minutes and the blood then mixed with Alsever solution (glucose 2.05 g, NaCl 0.4 g, […] 0.8 g, adjust to 100 ml with distilled water) and stored at 4° C. Immediately before use, samples were centrifuged at 130 g, 5 minutes to collect the SRBC. The cells were washed two times by re-suspension and centrifugation in normal saline. Then the cell pellet was collected by centrifugation at 180 g for 10 minutes and re-suspended in saline to make the final working SRBC suspension, 2% (v/v).
Complement was prepared by adding 10 volumes of fresh Cavy serum into one volume centrifuge packed SRBC, and then gently shaking for 30 minutes at 4° C. The SRBC was removed by centrifugation at 200 g for 10 minutes. 10 volumes of normal saline were added to obtain the working complement solution.
The test substances were administered as described in section 1.1, plus intraperitoneal injection 0.2 ml SRBC per mouse on day 12. On the day after the last test substance administration (day 16), blood was collected from the eye canthus and left at room temperature for one hour for serum exudation. After centrifugation at 200 g for 10 minutes, the serum was diluted by 500 times with normal saline.
To 1 ml diluted mouse serum of each mouse, 0.5 ml SRBC suspension was added. Ice cold. Then 1 ml working complement solution was added and incubated at 37° C. water bath for 10 minutes. Reactions were terminated by ice cold. Samples were then centrifuged at 200 g for 10 minutes to obtain the supernatant.
To 1 ml of this supernatant, 3 ml Drabkin solution was added and left at room temperature for 10 minutes. OD540 nm was obtained.
Reference OD540 nm was obtained by mixing 0.25 ml SRBC suspension with Drabkin solution to 4 ml and placed at room temperature for 10 minutes before OD540 nm was taken.
Sample serum index=(OD540 nm of test sample÷reference OD540 nm)×500

[6] = tested on: mononuclear phagocyte; test: Carbon particle clearance test, phagocytosis function; type: in vivo, BALB/c mice; design: key to X ± SD (phagocytotic index): α = cube root of K × (body weight ÷ liver+spleen weight); conditions: for X ± SD (phagocytotic index): healthy mice, saline 5.1 ± 0.6; for effect on the phagocytotic activity of mononuclear phagocyte (summary): statistically significant difference from saline in any of the dosage groups 0.5-500 μg/kg/day
Experimental: On the next day after the last test substance administration (day 16), the mice were injected with […] body weight India ink (5 times dilution with normal saline) from the tail vein.
One minute and five minutes after Indian ink injection, 20 μl blood was obtained from the eye canthus with a heparinized tubing. The blood was mixed with 2 ml 0.1% w/v Na2CO3 and then OD680 nm obtained. The outline clear index K was calculated by the following formula: K=(lgA1−lgA2)÷(t2−t1)
(§2) One day after the last test substance administration (day 16), the liver, spleen, and thymus gland were separated and blotted dry with filter paper and weighed. The phagocytosis index α was calculated as below: α=(^3√{square root over ( )}K)(W÷WLS)

[7] = tested on: thymus gland; test: Immunity organ weight test, thymus gland index; type: in vivo, BALB/c mice; conditions: for weight of thymus gland (thymus gland index), X ± SD (%): healthy mice, saline 0.12 ± 0.02; for effect on the weight of the thymus gland (summary): statistically significant difference from saline in any of the dosage groups 0.5-500 μg/kg/day
Experimental: as §2
Thymus gland index (%)=(thymus weight/body weight)×100%

[8] = tested on: spleen; test: Immunity organ weight test, spleen index; type: in vivo, BALB/c mice
Experimental: as §2
Spleen index (%)=(spleen weight/body weight)×100%

[9] = Week 1, peptides 50 μg/kg/day, hydrocortisone 3.3 mg/kg/day i.p., placebo 22.9 ± 22, normal 1.7 ± 1.3
[10] = Week 2, peptides 50 μg/kg/day i.p., hydrocortisone dose halved after first week, placebo 17.2 ± 14.5, normal 2.3 ± 1.1
[11] = Week 3, peptides 50 μg/kg/day i.p., hydrocortisone dose halved after first week, placebo 20.2 ± 29.0, normal 0.4 ± 0.2
[12] = statistically significant difference from saline in any of the dosage groups 0.5-500 μg/kg/day
[13] = peptide 0.5 μg/kg/day i.p. 15 days
[14] = peptide 50 μg/kg/day i.p. 15 days (IFN-γ, IL-2 3×10^5 IU/kg/day)
[15] = peptide 0.5 μg/kg/day i.p. 15 days (IFN-γ, IL-2 3×10^5 IU/kg/day)
[16] = peptide 5 μg/kg/day i.p. 15 days (IFN-γ, IL-2 3×10^5 IU/kg/day)

Compound	urine protein level [3, 9]	urine protein level [3, 10]	urine protein level [3, 11]	spleen index ([3]; peptides 50 μg/kg/day i.p.)	Serum creatinine level ([3]; peptides 50 μg/kg/day i.p.)	anti-SRBC antibody formation, X ± SD (Unit) [5, 13]	effect on the phagocytotic activity of mononuclear phagocyte (summary) [6]	weight of thymus gland (thymus gland index), X ± SD (%) [7, 15]	weight of thymus gland (thymus gland index), X ± SD (%) [7, 16]	weight of thymus gland (thymus gland index), X ± SD (%) [7, 14]	effect on the weight of the thymus gland (summary) [7]	renal pathological microscopic examination [3]	other results
O=P1(N(CCCl)CCCl)NCCCO1 (stereo not shown) [Cyclophosphamide, reference compound]													Tumor weight [1]: 0.68 ± 0.32 g; Survival days [2]: 24.0 ± 5.3 days
C[C@]12CCC(=O)C=C1CC[C@@H]1[C@@H]2[C@@H](O)C[C@@]2(C)[C@H]1CC[C@]2(O)C(=O)CO [hydrocortisone, Hydrocortisone, reference compound]	3.1 ± 2.0 mg	7.5 ± 7.7 mg	7.6 ± 7.1 mg	4.5 ± 1.4 ×10^−3	239 ± 107 µmol/L								growth rate of the rats ([3]; peptides 50 μg/kg/day, hydrocortisone 3.3 mg/kg/day i.p.): slower growth rate than normal
Phe Gln Gln Met (FQQM; printed: Phe Gln Gln Met) [CMS030]	5.4 ± 3.4 mg	9.5 ± 16.2 mg	2.4 ± 1.5 mg	3.0 ± 0.5 ×10^−3	93 ± 1 µmol/L	19 ± 7 Unit	enhance	0.24 ± 0.05*^@^ %	0.23 ± 0.07*^ %	0.25 ± 0.04*^@^ %	increase	all pathological parameters of all rats were normal	NK cell cytotoxic activity, X ± SD (%) ([4]; healthy mice, peptide 500 μg/kg/day i.p. 15 days (IFN-γ, IL-2 3×10^5 IU/kg/day), saline 63 ± 9): 91 ± 5*^@^ %; effect on the cytotoxic activity of NK cells (summary) [4, 12]: increase; anti-SRBC antibody formation, X ± SD (Unit) ([5]; peptide 5 μg/kg/day i.p. 15 days): 158 ± 37*^@^ Unit; anti-SRBC antibody formation, X ± SD (Unit) ([5]; peptide 50 μg/kg/day i.p. 15 days): 141 ± 33*^@^ Unit; effect on the synthesis of anti-SRBC antibody upon the antigenic challenge (summary) [5, 12]: enhance; also recorded: inhibit; X ± SD (phagocytotic index) [6, 14]: 6.3 ± 0.5; weight of thymus gland (thymus gland index), X ± SD (%) ([7]; peptide 500 μg/kg/day i.p. 15 days (IFN-γ, IL-2 3×10^5 IU/kg/day)): 0.30 ± 0.03*^@^ %; weight of spleen (spleen index), X ± SD (%) ([8]; Table 30, healthy mice, peptide 5 μg/kg/day i.p. 15 days, saline 0.53 ± 0.05): 0.64 ± 0.09 %; effect on the weight of the spleen (summary) [8, 12]: increase
VGMGQKDSY	7.0 ± 3.7 mg	5.5 ± 7.9 mg	3.3 ± 3.4 mg	3.3 ± 0.8 ×10^−3	67 ± 1 µmol/L	3 ± 1 Unit	enhance	0.20 ± 0.03 %	0.24 ± 0.04*^@^ %	0.23 ± 0.02*^@^ %	increase	all pathological parameters of all rats were normal	anti-SRBC antibody formation, X ± SD (Unit) ([5]; peptide 500 μg/kg/day i.p. 15 days): 66 ± 16 Unit; X ± SD (phagocytotic index) [6, 16]: 6.7 ± 1.2
